Measurements: paper PMC9181795, “Ibuprofen Favors Binding of Amyloid-β Peptide to Its Depot, Serum Albumin” (International Journal of Molecular Sciences, 2022)
Entries after “also recorded” stand apart in the source; their conditions may differ.

Experiments:
[1] = tested on: Aβ40; assay: ThT fluorescence assay, Aβ40 fibrillation; format: biochemical, human
Description: ThT fluorescence emission measurements were carried out using a BioTek Synergy H1 multimode microplate reader and Greiner Bio-One non-binding microplates #781906 mainly as described in ref. [11]. […] ThT fluorescence was excited at 440 nm and emission at 485 nm was measured for 190 h every 30 min, with orbital shaking prior to each measurement. […] The lag time, tlag, is calculated as (t0 − 2/kapp).

[2] = tested on: AD; set-up: method as in 2 sources, one per row (each row's own in cited_ref): ref [36],[37],[38] = [36]; PMID 11794217; doi:10.1056/NEJMoa010178; 36. In’T Veld B.A. Ruitenberg A. Hofman A. Launer L.J. Van Duijn C.M. Stijnen T. Breteler M.M. Stricker B.H. Nonsteroidal antiinflammatory drugs and the risk of Alzheimer’s disease N. Engl. J. Med. 20 || [37]; PMID 18458226; doi:10.1212/01.wnl.0000311269.57716.63; 37. Vlad S.C. Miller D.R. Kowall N.W. Felson D.T. Protective effects of NSAIDs on the development of Alzheimer disease Neurology 2008 70 1672 1677 10.1212/01.wnl.0000311269.57716.63 18458226 PMC275824 || [38]; PMID 25227314; doi:10.3233/JAD-141506; 38. Wang J. Tan L. Wang H.F. Tan C.C. Meng X.F. Wang C. Tang S.W. Yu J.T. Anti-inflammatory drugs and risk of Alzheimer’s disease: An updated systematic review and meta-analysis J. Alzheimers Dis. 201 ||| ref [36],[37],[73] = [36]; PMID 11794217; doi:10.1056/NEJMoa010178; 36. In’T Veld B.A. Ruitenberg A. Hofman A. Launer L.J. Van Duijn C.M. Stijnen T. Breteler M.M. Stricker B.H. Nonsteroidal antiinflammatory drugs and the risk of Alzheimer’s disease N. Engl. J. Med. 20 || [37]; PMID 18458226; doi:10.1212/01.wnl.0000311269.57716.63; 37. Vlad S.C. Miller D.R. Kowall N.W. Felson D.T. Protective effects of NSAIDs on the development of Alzheimer disease Neurology 2008 70 1672 1677 10.1212/01.wnl.0000311269.57716.63 18458226 PMC275824 || [73]; PMID 33134914; doi:10.1093/braincomms/fcaa109; 73. Rivers-Auty J. Mather A.E. Peters R. Lawrence C.B. Brough D. Anti-inflammatories in Alzheimer’s disease—potential therapy or spurious correlate? Brain Commun. 2020 2 fcaa109 10.1093/braincomms/fca; conditions: cited from earlier work
[3] = tested on: HSA–Aβ interaction
Description: To ensure the monomeric state of Aβ, the non-covalently bound Aβ molecules were thoroughly washed from the chip surface until stabilization of the SPR signal using several water solutions: 2% sodium dodecyl sulfate (SDS), 100 mM HCl, 20 mM ethylenediaminetetraacetic acid (EDTA) pH 8.0 with 1% SDS.
The freeze-dried Aβ samples were dissolved in neat TFA at a concentration of 0.5–1 mg/mL, followed by sonication for 30 s and TFA evaporation using an Eppendorf Concentrator plus. The dried Aβ samples were dissolved in DMSO at a concentration of 2 mg/mL and stored at −20 °C.
The rest of the activated amine groups on the chip surface were blocked by 1 M ethanolamine solution. […] The double-referenced SPR sensograms were analyzed using the heterogeneous ligand model (Equation (1)), assuming presence of two populations of a ligand (L1 and L2) that bind an analyte molecule (A):(1) ka1L1+ A⇌L1Akd1Kd1 ka2L2+ A⇌L2Akd2Kd2 where ka and kd refer to kinetic association and dissociation constants, respectively; Kd1 and Kd2 are equilibrium dissociation constants. The equilibrium and kinetic dissociation/association constants were evaluated for each analyte concentration using Bio-Rad ProteOn Manager™ v.3.1 software (Hercules, CA, USA), followed by averaging of the resulting values (n = 3–4; standard deviations are indicated).

[4] = 20 µM IBU, no HSA, 20 µM Aβ40, 30 °C, Boltzmann sigmoid function, n = 3–5

## CC(C)Cc1ccc(C(C)C(=O)O)cc1 (stereo not shown) [IBU, 2-[4-(2-methylpropyl)phenyl]propanoic acid]
[1]; 20 µM IBU + 2 µM HSA, 20 µM Aβ40, 30 °C, pH 7.4
  effect of IBU on suppression of Aβ40 fibrillation by HSA: strengthens the suppression of Aβ40 fibrillation by 2 µM HSA; also recorded: favors the suppression of fibrillation of 20 µM Aβ40 by 2 µM HSA
[1]; 20 µM IBU in presence of 2 µM HSA, 20 µM Aβ40, 30 °C, n = 3–5
  decline in tlag in response to IBU: 21%
[1]; 20 µM IBU, 2 µM HSA, 20 µM Aβ40
  minor opposite effects of IBU on lag phase and rate constant: shortening of the lag phase and decrease in the apparent rate constant of the process
[1]; 20 µM IBU, 20 µM Aβ40, no HSA, 30 °C, pH 7.4
  suppression of fibrillation by IBU alone: does not induce statistically significant suppression of the fibrillation process
[1]; [4]
  effect on apparent rate constant kapp: did not affect the kapp value
  factor of shortening of lag phase (tlag): 2
[1]; combination of 2 µM HSA and 20 µM IBU, 20 µM Aβ40, 30 °C, n = 3–5
  decrease in apparent rate constant kapp: 17%
[2]; ref [36],[37],[73]
  rates of AD among people taking IBU for chronic treatment of inflammatory conditions: lower rates of AD
[2]; retrospective studies, ref [36],[37],[38]
  AD protection with long-term use of nonsteroidal anti-inflammatory drugs, including IBU: protective against AD
[3]
  effect of IBU on HSA affinity to Aβ compared with serotonin: lower than the effect for serotonin
